# Values of other authors as cited in PubChem BioAssay AID1259409 (Chemical Carcinogenesis Research Information System (CCRIS), 2018).
# Tested on: rodent chemically induced tumor inhibition, incidence and multiplicity
# Assay: CCRIS tumor inhibitor studies
# Conditions: Dose [Inhibitor]: 0
SMILES,"tumour outcome (control, treated, inhibition, significance) (Carcinogen: 7,12-DIMETHYLBENZ[A]ANTHRACENE, 57-97-6, 162 NMOL IN 100 µL ACETONE 2/WK FOR 20 WK BEGINNING 1 WK POST CARCINOGEN DOSE (STUDY DURATION: 21 WK), Route [Inhibitor]: DERMAL, Species: MOUSE, Strain/Sex: ICR/FEMALE, Target Tissue: Type of Lesion: SKIN: TUMOR, Dose [Carcinogen]: 100 UG ONCE, Promoter: 12-O-TETRADECANOYLPHORBOL-13-ACETATE, 16561-29-8)","tumour outcome (control, treated, inhibition, significance) (Carcinogen: 7,12-DIMETHYLBENZ[A]ANTHRACENE, 57-97-6, 1620 NMOL IN 100 µL ACETONE 2/WK FOR 20 WK BEGINNING POST CARCINOGEN DOSE (STUDY DURATION: 21 WK), Route [Inhibitor]: DERMAL, Species: MOUSE, Strain/Sex: ICR/FEMALE, Target Tissue: Type of Lesion: SKIN: TUMOR, Dose [Carcinogen]: 100 UG ONCE, Promoter: 12-O-TETRADECANOYLPHORBOL-13-ACETATE, 16561-29-8)","tumour outcome (control, treated, inhibition, significance) (Carcinogen: AZOXYMETHANE, 25843-45-2, 100 PPM IN DIET BEGINNING 1 WK PRIOR TO CARCINOGEN TREATMENT FOR DURATION OF STUDY (STUDY DURATION: 54 WK), Route [Inhibitor]: ORAL, Species: RAT, Strain/Sex: F344/MALE, Target Tissue: Type of Lesion: COLON: ADENOCARCINOMA, Dose [Carcinogen]: 15 MG/KG/BW 1/WK FOR 2 WK, Promoter: NONE USED)","tumour outcome (control, treated, inhibition, significance) (Carcinogen: AZOXYMETHANE, 25843-45-2, 100 PPM IN DIET BEGINNING 1 WK TO CARCINOGEN TREATMENT FOR DURATION OF STUDY (STUDY DURATION: 54 WK), Route [Inhibitor]: ORAL, Species: RAT, Strain/Sex: F344/MALE, Target Tissue: Type of Lesion: COLON: ADENOMA, Dose [Carcinogen]: 15 MG/KG/BW 1/WK FOR 2 WK, Promoter: NONE USED)","tumour outcome (control, treated, inhibition, significance) (Carcinogen: AZOXYMETHANE, 25843-45-2, 200 PPM IN DIET BEGINNING 1 WK PRIOR TO CARCINOGEN TREATMENT FOR DURATION OF STUDY (STUDY DURATION: 54 WK), Route [Inhibitor]: ORAL, Species: RAT, Strain/Sex: F344/MALE, Target Tissue: Type of Lesion: COLON: ADENOCARCINOMA, Dose [Carcinogen]: 15 MG/KG/BW 1/WK FOR 2 WK, Promoter: NONE USED)","tumour outcome (control, treated, inhibition, significance) (Carcinogen: AZOXYMETHANE, 25843-45-2, 200 PPM IN DIET BEGINNING 1 WK PRIOR TO CARCINOGEN TREATMENT FOR DURATION OF STUDY (STUDY DURATION: 54 WK), Route [Inhibitor]: ORAL, Species: RAT, Strain/Sex: F344/MALE, Target Tissue: Type of Lesion: COLON: ADENOMA, Dose [Carcinogen]: 15 MG/KG/BW 1/WK FOR 2 WK, Promoter: NONE USED)","tumour outcome (control, treated, inhibition, significance) (Carcinogen: N-BUTYL-N-(4-HYDROXYBUTYL)NITROSAMINE, 3817-11-6, 40 MG/KG DIET FOR 24 WK BEGINNING 1 WK PRIOR TO CARCINOGEN TREATMENT (STUDY DURATION: 24 WK), Route [Inhibitor]: ORAL, Species: MOUSE, Strain/Sex: BDF/MALE, Target Tissue: Type of Lesion: URINARY BLADDER: TRANSITIONAL CELL CARCINOMA, Dose [Carcinogen]: 7.5 MG 1/WK FOR 8 WK, Promoter: NONE USED)","tumour outcome (control, treated, inhibition, significance) (Carcinogen: N-BUTYL-N-(4-HYDROXYBUTYL)NITROSAMINE, 3817-11-6, 80 MG/KG DIET FOR 24 WK BEGINNING 1 WK PRIOR TO CARCINOGEN TREATMENT (STUDY DURATION: 24 WK), Route [Inhibitor]: ORAL, Species: MOUSE, Strain/Sex: BDF/MALE, Target Tissue: Type of Lesion: URINARY BLADDER: TRANSITIONAL CELL CARCINOMA, Dose [Carcinogen]: 7.5 MG 1/WK FOR 8 WK, Promoter: NONE USED)"
COc1c(C)c(O)c(C(C)=O)c(O)c1Cc1c(O)c(CC=C(C)C)c(O)c(C(C)=O)c1O,"40%, 36%, 10%, not significant","52%, 0%, 100%, not calculated",,,,,,
CC(C(=O)O)c1cccc(C(=O)c2ccccc2)c1 (stereo not drawn),,,"58%, 56%, 3%, not calculated","6%, 3%, 50%, not calculated","58%, 28%, 52%, p<0.01","6%, 6%, 0%, not significant","22/75 (29%), 5/73 (7%), 76%, p<0.01","22/75 (29%), 4/72 (6%), 79%, p<0.01"
